Experiments:
HCV replicon 1B = assay: HCV Rep 1B EC50; type: cell-based; conditions: for EC50: Hepatitis C virus, 72 h, HCV replicon cells, 3 days
Procedure: Compounds were serially diluted in ten steps of 1:3 dilutions in 384-well plates. All serial dilutions were performed in four replicates per compound within the same 384-well plate. […] To each well of a black polystyrene 384-well plate (Greiner Bio-one, Monroe, NC), 90 μL of cell culture medium (without Geneticin) containing 2000 suspended HCV replicon cells was added with a Biotek μFlow workstation. For compound transfer into cell culture plates, 0.4 μL of compound solution from the compound serial dilution plate was transferred to the cell culture plate on a Biomek FX workstation. The DMSO concentration in the final assay wells was 0.44%. The plates were incubated for 3 days at 37° C. with 5% CO2 and 85% humidity. The HCV replicon assay was a multiplex assay, able to assess both cytotoxicity and antireplicon activity from the same well. The CC50 assay was performed first. The media in the 384-well cell culture plate was aspirated, and the wells were washed four times with 100 μL of PBS each, using a Biotek ELX405 plate washer. A volume of 50 μL of a solution containing 400 nM calcein AM (Anaspec, Fremont, CA) in 1×PBS was added to each well of the plate with a Biotek μFlow workstation. The plate was incubated for 30 min at room temperature before the fluorescence signal (excitation 490 nm, emission 520 nm) was measured with a Perkin-Elmer Envision plate reader. The EC50 assay was performed in the same wells as the CC50 assay. The calcein-PBS solution in the 384-well cell culture plate was aspirated with a Biotek ELX405 plate washer. A volume of 20 μL of Dual-Glo luciferase buffer (Promega, Madison, WI) was added to each well of the plate with a Biotek μFlow Workstation. The plate was incubated for 10 min at room temperature. […] The plate was then incubated at room temperature for 10 min before the luminescence signal was measured with a Perkin-Elmer Envision Plate Reader.

HRVc15 replicon = assay: HRVc15 HeLa replicon EC50; type: cell-based, human rhinovirus; conditions: for EC50: Human rhinovirus sp., HRV15, HRVc15 replicon in H1-HeLa cells, 48 hrs, luciferase, read-out: HRV15 Rep EC50
Procedure: First, HRV replicon RNA is prepared. 5 μg of DNA Template (HRVc15 or HRVc25) is linearized with 2 μL of MluI enzyme in NEB buffer-3 in a final volume of 25 μL for 3 hours at 37° C. Following incubation, linearized DNA is purified on a PCR purification column and the following in vitro transcription is performed using the following conditions: 10 μL of RiboMAX Express T7 2× buffer, 1-8 μL of linear DNA template (1 μg), 0-7 μL nuclease free water, 2 μL enzyme mix T7 express. The final volume of 20 μL is mixed and incubated at 37° C. for 30 min. Following incubation, 1 μL of RQ1 RNase free DNase is added and the mixture is incubated at 37° C. for 15 min. The resulting RNA is then purified with the MegaClear Kit (Gibco Life Technologies Cat #11835-030) and is eluted two times with 50 μL of elution buffer at 95° C. H1-HeLa cells cultured in complete RPMI 1640 media containing 10% heat-inactivated FBS and 1% Penicillin/Streptomycin are seeded into T-225 flasks at a concentration of 2E6 cells/flask a day prior to transfection and are incubated at 37° C./5% CO2 overnight. On the day of transfection, cells are trypsinized following standard cell culture protocols and are washed two times with PBS. Following washes, cells are resuspended at a concentration of 1E7 cells/mL in PBS and the suspension is stored on wet ice. Electroporation is used to introduce replicon RNA into the H1-HeLa cells. A final volume of 10 μL containing 10 μg of replicon c15 or 1 μg of c25 replicon RNA, respectively, are pipetted into a 4 mm electroporation cuvette. The H1-HeLa cell stock is mixed by gently swirling and 0.5 mL of the cell stock previously prepared is transferred into the cuvette containing the replicon RNA. The combined solution is flicked to mix. Following mixing, cells are immediately electroporated using the following settings: 900V, 25 uF, infinite resistance, 1 pulse. Cuvettes are rested on ice for 10 min. Following the 10 min incubation, add 19 mL of ambient temperature, phenol red-free and antibiotic-free RPMI 1640 containing 10% heat-inactivated FBS per electroporation. 150 μL (4E4 cells) of the electroporated cell suspension are seeded per well into a 96 well clear-bottom, white cell culture plate, and are incubated at 25° C. for 30 min. […] Replicon activity is then measured by a Renilla-Glo Luciferase Assay system. Prior to signal quantification, plates are removed from incubators and are allowed to equilibrate to 25° C. after 50 uL is removed from each well. […] Plates are then incubated for 20 min at 25° C. under gentle agitation and luciferase signal are determined with a 0.1 second detection setting using an EnVision luciferase quantification reader.

PHH cytotoxicity assay = type: cell-based; conditions: human, fresh primary hepatocytes (PHH), daily replacement
Procedure: Three-fold serial dilutions of the compound of Formula I and compounds 1, 2 and 6 were prepared in duplicate in 96-well plates starting at a concentration of 50 or 100 μM. Fresh human hepatocytes were ordered in a 96-well plate format from BioIVT (Baltimore, Maryland, Cat #F/M91565) with a Matrigel overlay or Invitrogen (Durham, North Carolina, Cat #HMFY96) with a Geltrex overlay. Donor profiles were limited to 4-65-year old with minimal alcohol consumption. PHH cells were allowed to recover 4-24 hours in complete medium with added supplement supplied by the vendor at 37° C. in a 5% CO2 incubator with 90% humidity before treated with compounds. Serial-diluted compounds and complete medium were replaced (130 μL/well) daily for 5 days, with final amount of DMSO equal to 0.5%. On Day 5, medium was removed from the assay plates and cell viability was determined by the addition of 100 μL Cell-Titer Glo viability reagents (Promega, Madison, WI, Cat #G7573) added to each well. Following 5-10 minutes incubation at room temperature, luminescence signal was quantified on a Victor Luminescence plate reader (Perkin-Elmer, Waltham, MA).

Row | SMILES | EC50 (HCV replicon 1B) | EC50 (HRVc15 replicon) | times more potent relative to compound 2, HCV Rep 1B (HCV replicon 1B; EC50 ratio vs compound 2) | times more potent compared to compound 2, HRV15 Rep (HRVc15 replicon; EC50 ratio vs compound 2) | CC50 at 5 days (PHH cytotoxicity assay)
1 | CCC(CC)COC(=O)[C@H](C)NP(=O)(OC[C@@]1(C#N)O[C@@H](c2ccc3c(N)ncnn23)[C@H](O)[C@@H]1O)Oc1ccccc1 (stereo partly drawn) [Compound 2, reference compound] | 2780 nM | 21 nM | – | – | –
2 | C[C@H](N[P@](=O)(OC[C@@]1(C#N)O[C@@H](c2ccc3c(N)ncnn23)[C@H](O)[C@@H]1O)Oc1ccccc1)C(=O)OC1CCCCC1 [Formula I, cyclohexyl ((S)-(((2R,3S,4R,5S)-5-(4-aminopyrrolo[2,1-f][1,2,4]triazin-7-yl)-2-cyano-3,4-dihydroxytetrahydrofuran-2-yl)methoxy)(phenoxy)phosphoryl)-L-alaninate] | 793 nM | 9 nM | about 3.5 times | about 2.3 times | 21200 nM
3 | CCC(CC)COC(=O)[C@H](C)N[P@](=O)(OC[C@@]1(C#N)O[C@@H](c2ccc3c(N)ncnn23)[C@H](O)[C@@H]1O)Oc1ccccc1 [Compound 6, 2-ethylbutyl ((S)-(((2R,3S,4R,5S)-5-(4-aminopyrrolo[2,1-f][1,2,4]triazin-7-yl)-2-cyano-3,4-dihydroxytetrahydrofuran-2-yl)methoxy)(phenoxy)phosphoryl)alaninate] | – | 17 nM | – | – | 14100 nM

— US20250034186A1, “ANTIVIRAL COMPOUNDS” (priority 2020, published 2025)
